# Data published in the supplement of paper PMC10307832.
# What was measured:
# Assay in all cases: relative viability (nuclei count vs DMSO), 5 days (fraction); higher = more cells survive
# CUDC-101 + Pictilisib = compound: C#Cc1cccc(Nc2ncnc3cc(OC)c(OCCCCCCC(=O)NO)cc23)c1 [CUDC-101] + CS(=O)(=O)N1CCN(Cc2cc3nc(-c4cccc5[nH]ncc45)nc(N4CCOCC4)c3s2)CC1 [Pictilisib] (partner 1 µM)
# Outline: (§1)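 Nuclei were stained with Hoechst during a one-step fixation (final 0.05% Triton X-100, 1% formaldehyde, 1 ug/ml Hoechst) carried out 5 days after dosing, then counted on 4× images. The cells, lung cancer lines in 1536-well plates, had been dosed by pin tool the day after seeding with one drug alone or a fixed anchor-drug dose plus five library-drug doses (not always all listed) in √10 steps. Relative viability is the nuclei count in treated wells divided by that in vehicle wells, and each value is the median of duplicate plates.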
# NVP-TAE684 + Crizotinib = compound: COc1cc(N2CCC(N3CCN(C)CC3)CC2)ccc1Nc1ncc(Cl)c(Nc2ccccc2S(=O)(=O)C(C)C)n1 [NVP-TAE684] + C[C@@H](Oc1cc(-c2cnn(C3CCNCC3)c2)cnc1N)c1c(Cl)ccc(F)c1Cl [Crizotinib] (partner 1 µM)
# Outline: as §1
# NVP-TAE684 + Dasatinib = compound: COc1cc(N2CCC(N3CCN(C)CC3)CC2)ccc1Nc1ncc(Cl)c(Nc2ccccc2S(=O)(=O)C(C)C)n1 [NVP-TAE684] + Cc1nc(Nc2ncc(C(=O)Nc3c(C)cccc3Cl)s2)cc(N2CCN(CCO)CC2)n1 [Dasatinib] (partner 0.075 µM)
# Outline: as §1
# Vandetanib + Dasatinib = compound: COc1cc2/c(=N/c3ccc(Br)cc3F)nc[nH]c2cc1OCC1CCN(C)CC1 [Vandetanib] + Cc1nc(Nc2ncc(C(=O)Nc3c(C)cccc3Cl)s2)cc(N2CCN(CCO)CC2)n1 [Dasatinib] (partner 0.075 µM)
# Outline: as §1
cell line,measurement,setting,value
UMC-11,relative viability,CUDC-101 + Pictilisib; first compound 0.01 µM,0.857
same,relative viability,CUDC-101 + Pictilisib; first compound 0.03162 µM,0.775
same,relative viability,CUDC-101 + Pictilisib; first compound 0.1 µM,0.679
same,relative viability,CUDC-101 + Pictilisib; first compound 0.3162 µM,0.575
same,relative viability,CUDC-101 + Pictilisib; first compound 1 µM,0.108
same,relative viability,NVP-TAE684 + Crizotinib; first compound 0.2 µM,0.45
same,relative viability,NVP-TAE684 + Crizotinib; first compound 0.6325 µM,0.459
same,relative viability,NVP-TAE684 + Crizotinib; first compound 2 µM,0.145
same,relative viability,NVP-TAE684 + Dasatinib; first compound 0.2 µM,0.577
same,relative viability,NVP-TAE684 + Dasatinib; first compound 0.6325 µM,0.415
same,relative viability,NVP-TAE684 + Dasatinib; first compound 2 µM,0.284
same,relative viability,Vandetanib + Dasatinib; first compound 0.02 µM,0.442
same,relative viability,Vandetanib + Dasatinib; first compound 0.06325 µM,0.422
same,relative viability,Vandetanib + Dasatinib; first compound 0.2 µM,0.43
same,relative viability,Vandetanib + Dasatinib; first compound 0.6325 µM,0.497
same,relative viability,Vandetanib + Dasatinib; first compound 2 µM,0.462
